Tests used:
Conditions in all cases: 48 h
NOMO1 [1] = assay: cell viability relative to DMSO control; higher = less cytotoxic
How it was run: (§1)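 Viability is expressed as a percentage of DMSO wells within each plate, and cell-free wells serve as background. Seeding densities in the 1536-well plates (5 μl) were 500 cells/well for NOMO1 or SEM leukemia cells and 1000 cells/well for P12-Ichikawa. Each line was adapted for at least four passages in each medium. Library compounds in DMSO were pin-dosed at 47 μM to 0.79 nM (11 points, threefold), and CellTiter-Glo One luminescence was read after 48 h at 37°C.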

P12-Ichikawa [2] = assay: as above
How it was run: as §1

SEM cells [3] = assay: as above
How it was run: as §1

NOMO1 [4] = assay: AUC of viability dose-response curve (% viability x log10 dose units); higher = less sensitive
How it was run: (§2)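 Medium-adapted leukemia cells in 1536-well plates, at 500 or 1000 cells/well, were incubated for 48 h at 37°C with library compounds in DMSO at 11 threefold doses from 47 μM to 0.79 nM. CellTiter-Glo One luminescence normalised per plate to DMSO and cell-free wells was fitted with a four-parameter log-logistic model over log10 doses. Area under the curve was integrated from this fit by trapezoidal rule, with curves beyond full viability scaled and failed quality-control curves removed.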

P12-Ichikawa [5] = assay: as above
How it was run: as §2

SEM cells [6] = assay: as above
How it was run: as §2

CN(C)C1CCN(C(=O)c2ccc(NC(=O)Nc3nc(N4CCOCC4)nc(N4CCOCC4)n3)cc2)CC1
cell viability [%]
Conditions	NOMO1 [1]	P12-Ichikawa [2]	SEM cells [3]
HPLM + 10% dialyzed FBS, 0.000781 µM	85.5	91.2	83.9
HPLM + 10% dialyzed FBS, 0.00234 µM	100	92	92.1
HPLM + 10% dialyzed FBS, 0.00702 µM	80	101	81.5
HPLM + 10% dialyzed FBS, 0.0211 µM	67.8	91.7	67.4
HPLM + 10% dialyzed FBS, 0.0632 µM	60.6	75.9	61.7
HPLM + 10% dialyzed FBS, 0.19 µM	52.9	76	49.7
HPLM + 10% dialyzed FBS, 0.569 µM	43.1	66.4	41.8
HPLM + 10% dialyzed FBS, 1.71 µM	44.9	64.2	31.2
HPLM + 10% dialyzed FBS, 5.12 µM	40.5	57.8	30.9
HPLM + 10% dialyzed FBS, 15.4 µM	28.7	34.3	23.8
HPLM + 10% dialyzed FBS, 46.1 µM	25.1	20.9	19.3
RPMI 5 mM glucose + 10% FBS, 0.000781 µM	84.8	85.6	87.9
RPMI 5 mM glucose + 10% FBS, 0.00234 µM	89.3	84.9	78.9
RPMI 5 mM glucose + 10% FBS, 0.00702 µM	90.5	82.6	94.3
RPMI 5 mM glucose + 10% FBS, 0.0211 µM	84.5	73	75.1
RPMI 5 mM glucose + 10% FBS, 0.0632 µM	64.9	56	65.3
RPMI 5 mM glucose + 10% FBS, 0.19 µM	63.6	58.5	48.4
RPMI 5 mM glucose + 10% FBS, 0.569 µM	52.7	48.2	39.3
RPMI 5 mM glucose + 10% FBS, 1.71 µM	49	42.2	27.4
RPMI 5 mM glucose + 10% FBS, 5.12 µM	43.4	35.4	25.6
RPMI 5 mM glucose + 10% FBS, 15.4 µM	36.5	34.7	17.8
RPMI 5 mM glucose + 10% FBS, 46.1 µM	18.2	22.9	11.9
RPMI 5 mM glucose + 10% dialyzed FBS, 0.000781 µM	84.9	83.7	78.1
RPMI 5 mM glucose + 10% dialyzed FBS, 0.00234 µM	83.8	85.5	85.8
RPMI 5 mM glucose + 10% dialyzed FBS, 0.00702 µM	83.9	80.6	79.4
RPMI 5 mM glucose + 10% dialyzed FBS, 0.0211 µM	70.9	78.6	70.9
RPMI 5 mM glucose + 10% dialyzed FBS, 0.0632 µM	60.8	61.6	57.2
RPMI 5 mM glucose + 10% dialyzed FBS, 0.19 µM	53.3	56.2	52.5
RPMI 5 mM glucose + 10% dialyzed FBS, 0.569 µM	45.8	47.4	41.9
RPMI 5 mM glucose + 10% dialyzed FBS, 1.71 µM	44.4	43.4	33.4
RPMI 5 mM glucose + 10% dialyzed FBS, 5.12 µM	39.6	41.5	32.1
RPMI 5 mM glucose + 10% dialyzed FBS, 15.4 µM	38	34	22
RPMI 5 mM glucose + 10% dialyzed FBS, 46.1 µM	22.8	20.1	14.6

AUC of viability dose-response curve
Conditions	NOMO1 [4]	P12-Ichikawa [5]	SEM cells [6]
HPLM + 10% dialyzed FBS	271	340	252
RPMI 5 mM glucose + 10% FBS	296	270	248
RPMI 5 mM glucose + 10% dialyzed FBS	272	275	247

Cc1cnn(C)c1C(=O)Nc1cc(Nc2ccc3c(/C=C/c4ccccn4)n[nH]c3c2)ccc1F
cell viability [%]
Conditions	HPLM + 10% dialyzed FBS	RPMI 5 mM glucose + 10% FBS	RPMI 5 mM glucose + 10% dialyzed FBS
NOMO1 [1], 0.000781 µM	119	–	–
NOMO1 [1], 0.00234 µM	125	–	–
NOMO1 [1], 0.00702 µM	124	–	–
NOMO1 [1], 0.0211 µM	141	–	–
NOMO1 [1], 0.0632 µM	129	–	–
NOMO1 [1], 0.19 µM	113	–	–
NOMO1 [1], 0.569 µM	143	–	–
NOMO1 [1], 1.71 µM	120	–	–
NOMO1 [1], 5.12 µM	102	–	–
NOMO1 [1], 15.4 µM	70.4	–	–
NOMO1 [1], 46.1 µM	12.9	–	–
SEM cells [3], 0.000781 µM	114	120	114
SEM cells [3], 0.00234 µM	123	118	119
SEM cells [3], 0.00702 µM	112	121	144
SEM cells [3], 0.0211 µM	103	107	124
SEM cells [3], 0.0632 µM	110	104	103
SEM cells [3], 0.19 µM	89.6	87.8	89.1
SEM cells [3], 0.569 µM	72.4	67	75.9
SEM cells [3], 1.71 µM	70.7	62.1	68.3
SEM cells [3], 5.12 µM	63.4	45.4	60.6
SEM cells [3], 15.4 µM	49.7	28.4	43
SEM cells [3], 46.1 µM	23.8	4.94	14.2

AUC of viability dose-response curve
Conditions	NOMO1 [4]	P12-Ichikawa [5]	SEM cells [6]
HPLM + 10% dialyzed FBS	422	424	343
RPMI 5 mM glucose + 10% FBS	460	449	311
RPMI 5 mM glucose + 10% dialyzed FBS	454	441	330

CC(C)c1ccc2c(c1)c(SC(C)(C)C)c(CC(C)(C)C(=O)[O-])n2Cc1ccc(Cl)cc1
cell viability [%]
Conditions	NOMO1 [1]	P12-Ichikawa [2]	SEM cells [3]
HPLM + 10% dialyzed FBS, 0.000781 µM	110	98.5	104
HPLM + 10% dialyzed FBS, 0.00234 µM	98.7	98.9	96.6
HPLM + 10% dialyzed FBS, 0.00702 µM	110	99.7	107
HPLM + 10% dialyzed FBS, 0.0211 µM	104	103	100
HPLM + 10% dialyzed FBS, 0.0632 µM	109	97	106
HPLM + 10% dialyzed FBS, 0.19 µM	101	98.4	95.3
HPLM + 10% dialyzed FBS, 0.569 µM	111	94.8	103
HPLM + 10% dialyzed FBS, 1.71 µM	95	93.4	101
HPLM + 10% dialyzed FBS, 5.12 µM	82	90.3	106
HPLM + 10% dialyzed FBS, 15.4 µM	95.1	87.5	107
HPLM + 10% dialyzed FBS, 46.1 µM	87.8	90.8	83.2
RPMI 5 mM glucose + 10% FBS, 0.000781 µM	84.2	96.3	101
RPMI 5 mM glucose + 10% FBS, 0.00234 µM	103	91.5	84
RPMI 5 mM glucose + 10% FBS, 0.00702 µM	92.8	100	109
RPMI 5 mM glucose + 10% FBS, 0.0211 µM	90.4	96.2	99.7
RPMI 5 mM glucose + 10% FBS, 0.0632 µM	88.9	96	96.9
RPMI 5 mM glucose + 10% FBS, 0.19 µM	96.9	96.3	102
RPMI 5 mM glucose + 10% FBS, 0.569 µM	105	92.6	89.9
RPMI 5 mM glucose + 10% FBS, 1.71 µM	87.9	92.3	101
RPMI 5 mM glucose + 10% FBS, 5.12 µM	86.3	88.2	93.5
RPMI 5 mM glucose + 10% FBS, 15.4 µM	85.4	85.3	89.5
RPMI 5 mM glucose + 10% FBS, 46.1 µM	85.1	89.9	75
RPMI 5 mM glucose + 10% dialyzed FBS, 0.000781 µM	90.5	87	98.9
RPMI 5 mM glucose + 10% dialyzed FBS, 0.00234 µM	91.5	93.6	103
RPMI 5 mM glucose + 10% dialyzed FBS, 0.00702 µM	91.9	90.3	106
RPMI 5 mM glucose + 10% dialyzed FBS, 0.0211 µM	91.6	88.8	107
RPMI 5 mM glucose + 10% dialyzed FBS, 0.0632 µM	81.5	94.8	97.6
RPMI 5 mM glucose + 10% dialyzed FBS, 0.19 µM	87.7	88.3	104
RPMI 5 mM glucose + 10% dialyzed FBS, 0.569 µM	79	93.8	91.6
RPMI 5 mM glucose + 10% dialyzed FBS, 1.71 µM	81.4	89.3	88.5
RPMI 5 mM glucose + 10% dialyzed FBS, 5.12 µM	78.5	81.7	92.5
RPMI 5 mM glucose + 10% dialyzed FBS, 15.4 µM	81.6	82.2	97.5
RPMI 5 mM glucose + 10% dialyzed FBS, 46.1 µM	75.5	84.5	89.9

AUC of viability dose-response curve
Conditions	NOMO1 [4]	P12-Ichikawa [5]	SEM cells [6]
HPLM + 10% dialyzed FBS	452	457	473
RPMI 5 mM glucose + 10% FBS	436	445	456
RPMI 5 mM glucose + 10% dialyzed FBS	403	423	455
